{"source": "patent US20190209502A1", "about": "“COMBINATION GEL FOR SEXUALLY TRANSMITTED INFECTIONS” (EVOFEM, INC., priority 2016, published 2019)", "origin": "cited, not measured here", "system": "HIV", "conditions": "compared with D or racemic lactic acid"}
{"smiles": "C[C@H](O)C(=O)O", "note": "[L form of lactic acid, L-(+)-lactic acid]", "values": [{"measurement": "potency in inactivating HIV", "result": "more potent in inactivating HIV than D or racemic lactic acid"}]}
